The source of these data is patent US20260306640A1, “TECHNOLOGIES TARGETING CELL STATES” (Auron Therapeutics, Inc., priority 2023, published 2026).

The structures appear in SMILES notation. Read-outs that look alike come from different tables or passages of the source.

The subject of one experiment is MOLM-13 cells. The experiment is described as follows: Cell growth inhibition, AML cell line MOLM-13 (CyQuant, day 7). In kind it is cell-based. Particulars: for GI50: Homo sapiens. An excerpt: Among other things, provided technologies are useful for treating various diseases, disorders, or conditions. For example, in some embodiments, provided technologies are useful for treating cancer as confirmed in the present Example. […] In some embodiments, provided technologies can inhibit cell proliferation. In some embodiments, the present disclosure provides technologies for assessing various technologies, e.g., compounds, compositions, or methods. Among other things, the present Example provides technologies, e.g., cell growth inhibition assay, for assessing various technologies. […] In some embodiments, the following cell growth inhibition methods are utilized to assess provided technologies.
AML: AML cell line MOLM-13 cells were cultured in RPMI+15% FBS and were plated at 500 cells/well in 100 uL media in a U-bottom 96-well plate. Compounds were dilute to 3×final in full media and 50 uL were added to corresponding wells. Compound and media were replenished on days 2 and 5. On day 7, cells were transferred to a 96-well black bottom plate and CyQuant was performed per manufacturer's instructions.
In some assessments, for cell growth inhibition, cells, e.g., MOLM13, NCI-H1048, and LASCPC-01 cells, were counted using a hemocytometer or automated cell counting in triplicates. In some assessments, proliferation in NEPC organoids as measured with Cell Titer Glo reagent (Promega). Growth inhibition was determined relative to vehicle control.

The target of the next experiment is KAT2B (Homo sapiens, UniProt Q92831). Nature of the experiment: Western blot of KAT2B in NCI-H1048 tumors, 168 hours post last dose. It is filed as in vivo. Set-up: degrader, Western blot. Conditions: FIG. 1 (F). The procedure: FIG. 1. Provided compounds can provide various activities including inhibiting tumor growth in vivo. (A): Provided compounds can inhibit tumor growth in vivo. Nude Balb/c mice were inoculated with NCI-H1048 cells in Matrigel. Tumors were allowed to grow up to about 200 mm^3 and mice were then randomized into two groups. Mice were dosed intraperitoneally (i.p.) once per week with vehicle or 30 mg/kg compound 22. Tumor size was measured every three to four days and mice were sacrificed once vehicle tumors reached 2000 mm^3. Error bar is SEM. Dosing started at day 17 post tumor inoculation. (B): Provided technologies can reduce KAT2A and KAT2B levels and histone acetylation levels. […] Vehicle is DMSO. […] Cell count data relative to DMSO control after 8 days of treatment with compound 22 are presented as examples to confirm inhibition. GI50=6 nM. (D): Provided technologies can inhibit tumor growth in vivo. Nude balb/c mice inoculated with H1048 tumors were dosed intraperitoneally once per week (qw i.p.) with vehicle (HbCD) or compound 22. Average tumor volumes+/−SEM from 6 mice are represented. […] See also (A). […] Certain body weights relative to starting weight are presented as examples to confirm tolerability and safety. (F): Provided technologies can reduce KAT2A and KAT2B levels and histone acetylation levels in tumor in vivo. […]
Sequence of KAT2B (Q92831 whole entry): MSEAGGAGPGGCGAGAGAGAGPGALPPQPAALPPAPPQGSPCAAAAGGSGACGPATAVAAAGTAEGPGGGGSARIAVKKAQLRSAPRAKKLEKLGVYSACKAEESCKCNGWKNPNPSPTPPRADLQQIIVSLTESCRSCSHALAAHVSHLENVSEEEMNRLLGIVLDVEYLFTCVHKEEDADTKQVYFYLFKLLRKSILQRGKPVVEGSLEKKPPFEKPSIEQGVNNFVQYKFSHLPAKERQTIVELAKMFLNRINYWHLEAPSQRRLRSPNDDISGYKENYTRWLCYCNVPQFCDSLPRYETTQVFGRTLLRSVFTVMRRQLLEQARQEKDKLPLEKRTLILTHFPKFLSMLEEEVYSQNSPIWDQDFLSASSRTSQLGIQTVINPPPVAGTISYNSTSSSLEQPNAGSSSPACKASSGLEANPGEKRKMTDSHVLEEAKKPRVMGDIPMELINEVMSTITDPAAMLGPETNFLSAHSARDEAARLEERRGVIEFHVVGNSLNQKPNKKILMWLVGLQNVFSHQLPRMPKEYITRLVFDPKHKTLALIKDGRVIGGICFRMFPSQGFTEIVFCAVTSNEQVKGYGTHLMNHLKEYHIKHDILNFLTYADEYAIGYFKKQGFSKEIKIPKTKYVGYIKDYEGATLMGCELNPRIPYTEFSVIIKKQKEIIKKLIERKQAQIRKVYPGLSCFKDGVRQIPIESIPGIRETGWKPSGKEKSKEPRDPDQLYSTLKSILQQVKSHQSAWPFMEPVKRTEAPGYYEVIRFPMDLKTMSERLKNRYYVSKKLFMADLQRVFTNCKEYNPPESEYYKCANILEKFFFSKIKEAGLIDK

The target in experiment [1] is T1, KAT2A (Homo sapiens, UniProt Q92830). The experiment is described as follows: Western blot of KAT2A level in neuroendocrine prostate cancer LASCPC-01 cells, 24 hours. It is filed as cell-based. Set-up: degrader, Western blot. Particulars: FIG. 3 (A). The procedure:
FIG. 3. Provided compounds can provide various activities. (A): Provided technologies can reduce KAT2A and KAT2B levels and histone acetylation levels. […] Cell viability (Cell Titer Glo) data relative to DMSO control after 7 days of treatment with compound 22 are presented as examples to confirm inhibition. GI50=5 nM. (C): Provided technologies can modulate cell states and induce differentiation. […] (D): Provided technologies can reduce KAT2A and KAT2B levels and histone acetylation levels including in neuroendocrine prostate cancer primary patient organoid. […] Concentrations are nM. […] Cell viability data relative to DMSO control after 21 days of treatment with compound 22 are presented as examples to confirm inhibition. GI50=3 nM. (F): Provided technologies can modulate cell states and induce differentiation.

In experiment [2] the target is T1, KAT2A. The experiment is described as follows: KAT2A degradation, Western Blot (Jess), NCI-H1048 cells. Set-up: degrader, Western blot (Jess). In kind it is cell-based. In outline:
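DC50 came from protein loss relative to DMSO, measured by Jess capillary immunoblot of RIPA lysates with chemiluminescence read-out. Before lysis, NCI-H1048 cells in 5% FBS HITES medium were exposed to compound for 24 h at 37° C.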

T1 sequence (Q92830 whole entry): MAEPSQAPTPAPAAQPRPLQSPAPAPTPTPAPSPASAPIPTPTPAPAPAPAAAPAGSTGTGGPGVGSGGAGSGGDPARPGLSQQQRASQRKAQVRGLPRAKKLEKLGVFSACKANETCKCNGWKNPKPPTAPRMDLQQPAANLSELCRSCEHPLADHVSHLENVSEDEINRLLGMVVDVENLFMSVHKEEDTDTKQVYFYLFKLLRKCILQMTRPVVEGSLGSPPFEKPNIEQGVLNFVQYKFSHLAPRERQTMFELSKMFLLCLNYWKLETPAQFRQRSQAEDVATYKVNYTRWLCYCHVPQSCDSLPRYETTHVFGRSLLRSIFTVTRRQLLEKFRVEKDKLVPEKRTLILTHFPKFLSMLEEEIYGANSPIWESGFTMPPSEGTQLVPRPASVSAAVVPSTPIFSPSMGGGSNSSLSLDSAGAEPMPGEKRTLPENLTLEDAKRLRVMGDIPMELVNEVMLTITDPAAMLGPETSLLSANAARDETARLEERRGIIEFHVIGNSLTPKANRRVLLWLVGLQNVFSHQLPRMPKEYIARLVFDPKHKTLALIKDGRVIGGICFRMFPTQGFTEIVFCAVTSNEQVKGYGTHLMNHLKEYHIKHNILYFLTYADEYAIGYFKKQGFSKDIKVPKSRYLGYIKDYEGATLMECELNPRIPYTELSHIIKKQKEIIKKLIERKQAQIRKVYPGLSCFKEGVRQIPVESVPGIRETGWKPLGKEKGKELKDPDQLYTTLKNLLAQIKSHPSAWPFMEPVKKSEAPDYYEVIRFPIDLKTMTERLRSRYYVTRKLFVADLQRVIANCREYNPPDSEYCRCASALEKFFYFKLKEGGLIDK

For the compound `CN1C[C@H](Nc2cnn(C)c(=O)c2Br)C[C@H](c2ccc(C(=O)N3CCC(CN4CCN(c5ccc6c(c5)CN(C5CCC(=O)NC5=O)C6=O)CC4)CC3)cc2)C1` (stereo partly drawn) [Compound 22, 3-(5-(4-((1-(4-((3R,5R)-5-((5-bromo-1-methyl-6-oxo-1,6-dihydropyridazin-4-yl)amino)-1-methylpiperidin-3-yl)benzoyl)piperidin-4-yl)methyl)piperazin-1-yl)-1-oxoisoindolin-2-yl)piperidine-2,6-dione], the GI50 was found to be 2.9 nM in the experiment with MOLM-13 cells (168 h, MOLM-13, day 7, CyQuant, read-out: MOLM13 GI50) and 1.2 nM in the experiment with MOLM-13 cells (MOLM-13, comparison table with Ref-1, read-out: Growth GI50). The cell growth entry with MOLM-13 cells (MOLM-13 cells, FIG. 2) is given as “inhibit cell growth”. In addition, the “reduction of KAT2B in tumor” value at KAT2B is “significant reduction”. For the same compound, at KAT2A [1], the “reduction of KAT2A level” value is “confirm such reduction”. At KAT2A [2] (24 h, NCI-H1048, KAT2A, read-out: DC90 (the source's name)), the EC90 came out at 0.29 nM. The DC50 on KAT2A [2] (NCI-H1048, KAT2A, read-out: DC50) is 0.01 nM; on KAT2A [2] (NCI-H1048 cells, KAT2A, 24 h, Western Blot, vs DMSO, read-out: KAT2A NCI-H1048 DC50), less than 1 nM. At KAT2A [2] (NCI-H1048 cells, FIG. 1), the KAT2A levels entry is “potently reduce KAT2A and KAT2B levels”.
